Measurements: US6790650B2, “Cacao endoproteinases and production of cocoa flavor from same” (Nestec S.A., priority 2000, dated 2004)
Square brackets hold non-standard residues; d marks the D form. Peptide text beside a SMILES is read from it. * marks the point of attachment. Sta = CC(C)C[C@H](N)[C@@H](O)CC(=O)O; Isovaleryl = CC(C)CC(=O)*

B1: TcAP2: aspartic endoproteinase from Theobroma cacao bean (clone CCN51), 514 amino acids; recombinant form secreted by Yarrowia lipolytica clone pCY330-33 (protein)
chain: MGTTIKVVVLSLFISSLLFSVVSSVSNDGLVRIGLKKMKLDPNNRLAARLDSKDGEALRAFIKKYRFRNNLGDSEETDIVALKNYMDAQYYGEIGIGTPTQKFTVIFDTGSSNLWVSSTKCYFSVACYFHEKYKASDSSTYKKDGKPASIQYGTGAISGFFSYDHVQVGDLVVKDQEFIEATKEPGLTFMVAKFDGILGLGFKEISVGDAVPVWYNMIKQGLIKEPVFSFWLNRNVDEEAGGEIVFGGVDPNHYKGKHTYVPVTQKGYWQFDMGDVLIADKPTGYCAGSCAAIADSGTSLLAGPSTVITMINHAIGATGVVSQECKAVVQQYGRTIIDLLIAEAQPQKICSQIGLCTFNGAHGVSTGIESVVDESNGKSSGVLRDAMCPACEMAVVWMQNQVRQNQTQDRILSYVNELCDRVPNPMGESAVDCGSLSSMPTISFTIGGKVFDLTPEEYILKVGEGSEAQCISGFTALDIPPPRGPLWILGDIFMGRYHTVFDFGKLRVGFAEAA

Key:
[1] = tested on: carboxypeptidase activity; details: cited from earlier work
[2] = tested on: recombinant TcAP2; assay: Effect of inhibitors on hydrolysis of bovine haemoglobin by recombinant TcAP2; format: biochemical, Theobroma cacao; details: 2 μM pepstatin; for Effect on endoprotease activity of recombinant TcAP2: pH 3, 2 mM 1.10 phenanthroline, 100 μM DCI, 10 μM E64
Description: Inhibitors were added in the reaction at final concentration of 2 mM for 1.10 phenanthroline, 100 μM DCI, 10 μM E64 and 2 μM pepstatin. Activity at pH 3 without inhibitor was taken as 100% and correspond to 28.8±3.8 pmoles L-leucine produced/min/mg protein. Data are means of 3 measurements±SD;
(§1) Aspartic endoproteinase activity was assayed at 42° C. in a 900 μl reaction medium containing 0.2M sodium citrate buffer pH3.0, 10 mg/ml bovine haemoglobin and 150 μl yeast culture supernatant. To stop the reaction aliquots (80 μl) were added to an equal volume of TCA 8% and the precipitated protein removed by centrifugation at 13000 g. 20 μl supernatant were mixed to 250 μl O-phthaldialdehyde (OPA) reagent (50 mM sodium tetraborate, 1% SDS, 5.96 mM OPA (dissolved in 1 ml methanol) and 1.43 mM β-mercaptoethanol. Activity was then determined measuring OD at 340 nm and expressed in pmole leucine produced per mg protein. For this, we use the following linear equation (OD340 nm=0.0156 pmoles+0.0088), which was determined using a standard curve with L-leucine (0 to 80 pmoles). Protein concentration was determined by Bradford assay (Biorad).
The pepstatin insensitive activity (1.91±1.26 pmoles L-leucine/min/mg protein, 6.65%) is in the same range as that one measured for the control strain (2.26±1.26 pmoles L-leucine/min/mg protein, 7.8%). Other inhibitors such as 1.10 phenanthroline (metallo proteases), DCI (serine proteases) and E64 (cysteine proteases) have no effect on TcAP2 activity (FIG. 12).

[3] = tested on: native aspartic endoproteinase (TcAP2), size exclusion purified pool #57-64; assay: Inhibitor sensitivity of the native purified aspartic endoproteinase (bovine hemoglobin hydrolysis, OPA read-out); format: biochemical, Theobroma cacao; details: for Remaining Activity %: pH 3, 10 mg/ml bovine hemoglobin, pepstatin A 0.002 mM, 1,10 phenanthroline 2.0 mM, E-64 0.01 mM, DCI 0.1 mM, two replicates
Description: as §1
The inhibitor sensitivity of the native aspartic endoproteinase was determined in 300 μl reactions containing 200 mM sodium citrate, pH 3, 10 mg/ml bovine hemoglobin, and 5 μl of size exclusion purified pool #57-64 (2.4 μg protein/μl). The inhibitors were added to give a final concentration of 2 μM pepstatin, 2 mM 1,10 phenanthroline, 100 μM dichloroisocoumarin (DCI), 10 μM E-64. The enzyme activity was determined as described in example 5.

[4] = tested on: aspartic endoproteinase activity; details: activity optimal at pH 3.5; cited from earlier work
[5] = tested on: bovine haemoglobin; assay: Aspartic endoproteinase activity of recombinant TcAP2 in yeast culture supernatant; format: biochemical
Description: Small patches of cells were streaked on YPD agar plates and grown overnight at 28° C. The thin layers of grown cells were used to inoculate 50 ml DMI medium in 500 ml Erlenmeyers with 4 lateral baffles. DMI medium contains per liter: KH2PO4, 10 g; MgSO4,7H2O, 2.5 g; glucose, 20 g; Trace elements solution, 5.1 ml; Vitamins solution, 17 ml; urea, 3 g. Urea was dissolved in 15 ml water and sterile filtered. The initial pH of the medium was adjusted to 5.0. The cultures were shaken at 140 rpm on a rotary shaker at 28° C. for three days. Aliquots of the cultures were centrifuged at maximum speed (3000 g) for 15 min. and the supernatant used for the determination of the aspartic endoproteinase activity.
as §1

Molecule | Effect on endoprotease activity of recombinant TcAP2 [2] | Remaining Activity % [3] [%] | further results
O=S(=O)(F)Cc1ccccc1 [PMSF] |  |  | Inhibition of carboxypeptidase activity [1]: inhibited
c1cnc2c(c1)ccc1cccnc12 [1,10 Phenanthroline, 1,10 phenanthroline] | no effect | 86 | 
CC(C)CC(=O)N[C@H](C(=O)N[C@H](C(=O)N[C@@H](CC(C)C)[C@@H](O)CC(=O)N[C@@H](C)C(=O)N[C@@H](CC(C)C)[C@@H](O)CC(=O)O)C(C)C)C(C)C [Pepstatin A] (Isovaleryl-VV[Sta]A[Sta]-OH) | completely inhibited | 0 | Inhibition of aspartic endoproteinase activity [4]: inhibited; Pepstatin insensitive activity ([2]; medium of pCY330-33, pH 3): 1.91±1.26 pmoles L-leucine/min/mg protein; Pepstatin insensitive activity, % of activity without inhibitor ([2]; activity at pH 3 without inhibitor taken as 100%): 6.65%; Inhibition of the purified native protease activity ([3]; 2 μM pepstatin, pH 3): inhibits completely
O=c1oc(Cl)c(Cl)c2ccccc12 [DCI, dichloroisocoumarin] | no effect | 90 | 
CC(C)C[C@H](NC(=O)[C@H]1O[C@@H]1C(=O)O)C(=O)NCCCCN=C(N)N [E-64] | no effect | 88 | 
B1 |  |  | Activity at pH 3 without inhibitor (taken as 100%) ([5]; FIG. 12, means of 3 measurements±SD): 28.8±3.8 pmoles L-leucine produced/min/mg protein; Hydrolysis of bovine haemoglobin by supernatant from pCY330-33 ([5]; pH 3.0, 42° C., means of 3 measurements±SD (FIG. 10)): 25.8±1.45 pmoles L-leucine/min/mg protein; Activity at pH higher than 5 ([5]; pH higher than 5): slight activity
